Assay results reported in patent US11173144B2, “Adrenergic receptor modulating compounds and methods of using the same” (The Board of Trustees of the Leland Stanford Junior …, priority 2016, dated 2021).
Read-outs that look alike come from different tables or passages of the source.

Key:
ADRB1 [1] = molecular target: T1, ADRB1 (Homo sapiens (Human), UniProt P08588); assay: cAMP assay (homogenous time-resolved fluorescence) in HEK-293 cells stably expressing human recombinant ADRB1; type: cell-based; conditions: for Emax: HEK293, 0.5 h, percent efficacy compared to the maximum response achieved with isoproterenol, read-out: cAMP pathway % Iso max
Experimental: Pharmacological effects of compounds at the cAMP pathway mediated by ADRB1 are evaluated by measuring cAMP production using the homogenous time-resolved fluorescence detection method with HEK-293 cells stably expressing human recombinant ADRB1. Briefly, cells are suspended in HBSS buffer completed with 20 mM HEPES (pH 7.4) and 500 μM IBMX (3-isobutyl-1-methylxanthine) and distributed at a density of 3×10^3 cells/well. […] The results are expressed as a percent of the maximum efficacy achieved with isoproterenol. Pharmacological effects of compounds at the cAMP pathway mediated by ADRB2 and ADRB3 are measured as described above using CHO cells stably expressing human recombinant ADRB2 and human SK-N-MC neurotumor cells endogenously expressing ADRB3, respectively.
After 30 minute incubation with compounds, the cells are lysed and the fluorescence donor (Europium-chelated-labeled cAMP tracer; Eu-cAMP tracer) and fluorescence acceptor (cAMP-specific monoclonal antibodies labeled with the ULight™ dye) are added. […] The results are expressed as a percent of the control response to 10 μM isoproterenol. For subtype selectivity determination, same procedure is performed using Chinese hamster ovary (CHO) cells stably expressing human β2-adrenergic receptors or SK-N-MC human neuroblastoma cell line expressing β3-adrenergic receptors.
(§1) ADRB1 EC50 from functional assay (nM)^a, Determined using the homogenous time-resolved fluorescence detection method with HEK-293 cells stably expressing human recombinant ADRB1. ADRB2 IC50 from binding assay(nM)^b, Determined using the Tag-lite Adrenoceptor Beta2 receptor ligand binding assay.

ADRB1 [2] = molecular target: T1, ADRB1; assay: β-arrestin assay (PathHunter enzyme fragment complementation, CHO-K1-ADRB1 cells); type: cell-based; conditions: for β-arrestin pathway % Iso max: percent efficacy compared to the maximum response achieved with isoproterenol; for concentration-dependent response at the β-arrestin pathway: up to 30 μM
Experimental: Pharmacological activity of compounds in the β-arrestin pathway mediated by ADRB1 are evaluated using an enzyme fragment complementation method with a β-galactosidase functional reporter. An engineered CHO-K1-ADRB1 PathHunter cell line (DiscoveRx) is used in the assay. In this cell line, enzyme acceptor (β-galactosidase fragment) is fused to β-arrestin and enzyme donor (β-galactosidase fragment) is fused to the ADRB1. Thus, activation of the ADRB1 stimulates binding of β-arrestin to the ProLink-tagged ADRB1 and forces complementation of the two enzyme fragments, resulting in the formation of an active β-galactosidase enzyme. Briefly, CHO-K1-ADRB1 PathHunter cell lines are plated in a total volume of 20 μL cell plating reagent (DiscoveRx, 93-0563R0A) at a density of 2,500 cells/well into 384 well microplates and incubated overnight at 37° C. in 5% CO2. […] Chemiluminescent signal is then read with a PerkinElmer Envision™ instrument. The results are expressed as a percent of the maximum efficacy achieved with isoproterenol.
Effects of compounds on β-arrestin signaling pathways are determined using CHO cells stably expressing human β1-adrenergic receptors or human β2-adrenergic receptors with PathHunter® β-Arrestin GPCR assay system (DiscoveRx). In this system, adrenergic receptor is fused in frame with the small enzyme fragment ProLink™ and co-expressed in cell stably expressing at fusion protein of β-arrestin and the larger, N-terminal deletion mutant of β-galactosidase enzyme. Activation of the adrenergic receptor stimulates binding of β-arrestin to the ProLink-tagged receptor and forces complementation of the two enzyme fragments, resulting in the formation of an active β-gal enzyme. This interaction leads to an increase in enzyme activity that can be measured using chemiluminescent detection reagents. The effects of compounds on β-arrestin signaling pathways are determined 90 minutes after incubating the cells with the test compounds.

C57BI/6J female mice = assay: 24 day administration, lung and heart weight and fibrosis; type: in vivo; conditions: 10 mg/kg for 24 days
Experimental: C57BI/6J female mice were administered with isoproterenol, KSN01-01-15, or KSN01-01-18 at 10 mg/kg for 24 days. After 24 days of treatment, mice were sacrificed, and lung and heart weight were measured. Hearts were then fixed in 10% formalin, and stained with Masson trichrome for evaluation of fibrosis.

[3] = test system: LPS-induced TNF-α production in primary microglia; assay: In vitro primary microglia TNF-α assay (LPS stimulation, ELISA); type: cell-based, rat; conditions: 4 h
Text: Mixed glial cells are obtained from the cerebral cortex of Sprague Dawley rat pups at postnatal days 1-3. Briefly, neonates are euthanized by decapitation and their brain tissues are collected for isolation of cortex. The isolated cortex was then trypsinized, triturated, and placed onto tissue culture flasks in DMEM supplemented with 10% fetal bovine serum and 1% Penicillin/Streptomycin. After 10 days in vitro, microglia are harvested by gentle shaking of the growth flask, plated in a 96 well plate at a density of 30,000 cells/well, and incubated at 37° C. overnight. […] Following the 4 h incubation, cell media is collected and the concentration of TNF-α is measured by ELISA (Invitrogen, KRC3011) according to the manufacturer's instruction.
The effects of selected compounds on cellular inflammatory response to LPS are determined in primary microglia extracted from a rat. Briefly, mixed glial cells are obtained from the cerebral cortex of Sprague Dawley rat pups at postnatal days 1-3 and cultured in DMEM supplemented with 10% fetal bovine serum. After 7 days in vitro, microglia are harvested by gentle shaking of the growth flask and plated in a 96 well plate at the density of 3×10^4 cells/well. The cells are used following day. Effects of compounds on LPS-induced TNFα production are determined by incubating cells with LPS along with or without test compounds for 4 hours. Following the 4 hour incubation, cell media are collected and concentration of TNFα was measured by EUSA.

ADRB2 = ADRB2 (Homo sapiens (Human), UniProt P07550); assay: Tag-lite Adrenoceptor Beta2 receptor ligand binding assay; conditions: Table 7; read-out: ADRB2 IC50 from binding assay
Experimental: as §1, with “The subtype selective activity of some compounds of interest was assessed for adrenergic receptor beta 1 (ADRB1) versus adrenergic receptor beta 2 (ADRB2). ADRB1 EC50” for “ADRB1 EC50”

[4] = molecular target: panel of CNS relevant targets, including G-protein coupled receptor and transporters; assay: Screen against a panel of CNS relevant targets (off-target affinity); type: binding; conditions: broad range of neurotransmitter transporters, ion channels and other CNS proteins
Text: From a drug development perspective, characterizing the off-target effects of lead compounds is an important issue, as interactions with off-target molecules may lead to undesirable side effects. Thus we screened xamoterol (S) and the key compound compound 43 against a panel of CNS relevant targets, including G-protein coupled receptor and transporters. […].

[5] = test system: LPS-induced TNF-α response; assay: In vivo LPS assay; design: species or system C57BI/6J mice; conditions: mice, 3 mg/kg 15 min prior to LPS, 90 min post-LPS
Experimental: Amplification is performed using StepOnePlus (Applied Biosystems).
Following injections, mice are single-housed. At 90 min post-LPS/saline, mice are deeply anesthetized with isoflurane and blood is collected from the right ventricle via cardiac puncture (23 g needle) into lithium heparin-containing vials (BD microtainer plasma tubes). Plasma is separated by centrifugation (11,000 rpm for 3 minutes) within 30 min of collection and stored at −80° C. until analysis. The concentration of TNF-α in the collected plasma is measured by ELISA (Invitrogen, KMC3012) according to the manufacturer's instruction.

[6] = Table 4, read-out: cAMP pathway ADRB1 EC50
[7] = Table 4, read-out: β-arrestin pathway ADRB1 EC50
[8] = Table 3, read-out: cAMP pathway ADRB1 EC50
[9] = Table 7, read-out: ADRB1 EC50 from functional assay

T1 sequence (P08588 whole entry): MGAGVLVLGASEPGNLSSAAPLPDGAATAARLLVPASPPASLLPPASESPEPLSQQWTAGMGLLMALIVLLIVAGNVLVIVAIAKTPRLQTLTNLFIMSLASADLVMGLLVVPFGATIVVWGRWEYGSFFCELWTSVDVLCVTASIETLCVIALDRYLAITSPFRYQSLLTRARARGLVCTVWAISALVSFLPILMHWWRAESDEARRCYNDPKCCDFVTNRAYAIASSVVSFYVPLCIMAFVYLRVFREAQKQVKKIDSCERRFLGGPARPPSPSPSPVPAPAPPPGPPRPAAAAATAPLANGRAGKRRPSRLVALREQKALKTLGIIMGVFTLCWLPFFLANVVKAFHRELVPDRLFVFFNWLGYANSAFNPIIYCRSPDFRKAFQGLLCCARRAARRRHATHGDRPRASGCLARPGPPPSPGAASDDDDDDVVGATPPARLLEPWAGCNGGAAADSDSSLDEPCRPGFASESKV
Chain of ADRB2 (P07550 whole entry): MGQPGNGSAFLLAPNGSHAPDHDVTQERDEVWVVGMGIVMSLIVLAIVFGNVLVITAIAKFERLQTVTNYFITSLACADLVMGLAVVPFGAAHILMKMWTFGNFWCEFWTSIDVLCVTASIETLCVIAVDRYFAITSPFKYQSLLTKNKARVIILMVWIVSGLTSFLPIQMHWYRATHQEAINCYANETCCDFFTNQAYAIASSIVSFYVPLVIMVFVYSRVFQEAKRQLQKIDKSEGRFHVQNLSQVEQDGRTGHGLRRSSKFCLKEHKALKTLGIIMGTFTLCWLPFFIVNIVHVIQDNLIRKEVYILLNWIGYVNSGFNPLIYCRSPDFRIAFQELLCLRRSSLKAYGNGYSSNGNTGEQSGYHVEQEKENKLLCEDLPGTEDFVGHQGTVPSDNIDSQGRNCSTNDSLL

SMILES: O=C(CCNC[C@H](O)COc1ccc(O)cc1)N1CCOCC1 [Compound 46]
- Emax (ADRB1 [1]; Table 4): 73.9 ± 10.2%
- EC50 (ADRB1 [1]; [6]): 100 to 1000 nM
- β-arrestin pathway % Iso max (ADRB1 [2]; Table 4): 13.7%
- EC50 (ADRB1 [2]; [7]): 10 to 100 nM

SMILES: O=C(NCCNC[C@H](O)COc1cc(F)c(O)cc1F)N1CCOCC1 [Compound 28]
- Emax (ADRB1 [1]; Table 3): 21.5 ± 0.5%
- EC50 (ADRB1 [1]; [8]): 1 to 10 nM

SMILES: CC(C)NCC(O)c1ccc(O)c(O)c1 (centres unmarked) [isoproterenol, reference compound]
- fibrotic changes in heart and heart weight (C57BI/6J female mice): induces fibrotic changes in heart and increases heart weight
- fibrotic changes in lung and lung weight (C57BI/6J female mice): induces fibrotic changes in lung and increases lung weight
- morphological changes in heart (C57BI/6J female mice): produces morphological changes in heart
- inhibition at 10 µM ([3]; Rattus norvegicus, Microglia, read-out: inhibition of LPS-induced TNF-α production): 85%

SMILES: Cc1n[nH]c2cccc(OC[C@@H](O)CNCCOc3ccccn3)c12 [Compound 87]
- EC50 (ADRB1 [1]; [9]): 5 nM
- IC50 (ADRB2): 0.23 nM

SMILES: COc1ccccc1OCCNC[C@H](O)COc1cccc2[nH]nc(C)c12 [Compound 52]
- EC50 (ADRB1 [1]; [9]): 9.2 nM
- IC50 (ADRB2): 0.024 nM

SMILES: N#Cc1cc(OC[C@@H](O)CNCCNC(=O)N2CCOCC2)ccc1O [Compound 29]
- EC50 (ADRB1 [1]; [8]): 1 to 10 nM

SMILES: COc1ccc(CCOCCNC[C@H](O)COc2ccc(O)cc2)cc1OC [Compound 44]
- Emax (ADRB1 [1]; Table 4): 60.2 ± 9.9%
- EC50 (ADRB1 [1]; [6]): 100 to 1000 nM
- β-arrestin pathway % Iso max (ADRB1 [2]; Table 4): 14%
- EC50 (ADRB1 [2]; [7]): 100 to 1000 nM

SMILES: COCC(C)(C)NC[C@H](O)COc1cccc2[nH]nc(C)c12 [Compound 90]
- EC50 (ADRB1 [1]; [9]): 3.4 nM
- IC50 (ADRB2): 0.019 nM

SMILES: O=C(CCCNC[C@H](O)COc1ccc(O)cc1)N1CCOCC1 [Compound 45]
- Emax (ADRB1 [1]; Table 4): 71.9 ± 1.3%
- EC50 (ADRB1 [1]; [6]): 10 to 100 nM
- β-arrestin pathway % Iso max (ADRB1 [2]; Table 4): 18.6%
- EC50 (ADRB1 [2]; [7]): 100 to 1000 nM

SMILES: COc1ccc(CCNCC(O)COc2ccc(O)c(O)c2)cc1OC (centres unmarked) [Compound 50]
- agonistic activity on the ADRB1-mediated cAMP pathway (ADRB1 [1]): full agonistic activity
- EC50 (ADRB1 [1]; [6]): 1 to 10 nM
- efficacy at the β-arrestin pathway compared to the full agonist isoproterenol (ADRB1 [2]): 36.5%
- β-arrestin pathway % Iso max (ADRB1 [2]; Table 4): 36.5%
- EC50 (ADRB1 [2]; [7]): 10 to 100 nM
- EC50 (ADRB1 [2]; read-out: EC50 at the β-arrestin pathway via ADRB1): 32.2 nM

SMILES: O=C(NCCNC[C@H](O)COc1ccc(O)cc1)N1CC(CO)C1 [Compound 48]
- Emax (ADRB1 [1]; Table 4): 40.1 ± 3.9%
- concentration-dependent response at the β-arrestin pathway (ADRB1 [2]): did not produce concentration-dependent response up to 30 μM

SMILES: O=C(NCCNC[C@H](O)COc1ccc(O)cc1)N1CCOCC1 [(S)-Xamoterol, reference compound]
- Ki [4]: > 10000 nM
- LPS-induced TNF-α response in periphery (plasma) [5]: markedly inhibited
- LPS-induced inflammatory response in the brain (TNF-α, IL-1β, IL-6 gene expression) [5]: attenuated
- inhibition of LPS-induced TNF-α production ([3]; rat primary microglia, LPS 10 ng/ml, compound 10 μM): approximately 60%

SMILES: COc1ccc(OCCNC[C@H](O)COc2cccc3[nH]nc(C)c23)cc1OC [Compound 55]
- EC50 (ADRB1 [1]; [9]): 35.4 nM
- IC50 (ADRB2): 0.38 nM

SMILES: O=C(NCCNC[C@H](O)COc1ccc(O)cc1)N1CC(O)C1 [Compound 47]
- Emax (ADRB1 [1]; Table 4): 42 ± 2.4%
- EC50 (ADRB1 [1]; [6]): 100 to 1000 nM
- concentration-dependent response at the β-arrestin pathway (ADRB1 [2]): did not produce concentration-dependent response up to 30 μM

SMILES: Cc1n[nH]c2cccc(OC[C@@H](O)CNC(C)(C)C)c12 [Compound 75]
- EC50 (ADRB1 [1]; [9]): 3.5 nM
- fibrotic changes in heart and heart weight (C57BI/6J female mice): did not induce these changes
- fibrotic changes in lung and lung weight (C57BI/6J female mice): did not induce these changes
- morphological changes in heart (C57BI/6J female mice): did not induce these changes
- IC50 (ADRB2): 0.065 nM

SMILES: Cc1n[nH]c2cccc(OC[C@@H](O)CNC(C)(C)COc3ccccn3)c12 [Compound 86]
- EC50 (ADRB1 [1]; [9]): 44.7 nM
- IC50 (ADRB2): 0.144 nM

SMILES: Cc1n[nH]c2cccc(OC[C@@H](O)CNCCc3ccccc3C(F)(F)F)c12 [Compound 69]
- EC50 (ADRB1 [1]; [9]): 1 nM
- IC50 (ADRB2): 0.048 nM

SMILES: COc1ccccc1CC(C)NC[C@H](O)COc1cccc2[nH]nc(C)c12 (some centres unmarked) [Compound 72]
- EC50 (ADRB1 [1]): 0.8 nM
- IC50 (ADRB2): 0.009 nM
